In PubChem BioAssay AID1963863 (Molecular Pharmacology Branch, DTP, NCI, 2024):

Test system: 931267-113-T-J1-PDC KRAS spheroid with HUVEC/MSC, viability
Assay: Anticancer human tumor 931267-113-T-J1-PDC patient-derived colon adenocarcinoma cell line growth inhibition [KRAS2]
Settings: for IC50: curve of first compound; for viability, T/C: stronger effect = lower value
Text: Multicellular complex tumor spheroid response to RAS pathway inhibitors in combination with a targeted agents in patient-derived cell lines with oncogenic KRAS variants from multiple cancer types
A high-throughput screen of multi-cell type tumor spheroids was designed to identify active combinations of targeted small molecules and KRAS pathway inhibitors. Complex spheroids include a stromal component modeled by human endothelial cells (HUVEC) and fibroblasts modeled by human mesenchymal stem cells (MSCs). The concentration ranges selected for each drug and investigational agent were based upon clinically achievable concentrations if the clinical Cmax of the agent was known.
Compounds. The drugs and investigational agents: BI-3406 (NSC825286), BAY-293 (NSC824723), batoprotafib (TNO155; NSC825523), sotorasib (AMG 510; NSC818433), MRTX1257 (NSC819558), elimusertib (BAY 1895344; NSC800525), molibresib (GSK525762; NSC774829), temuterkib (LY3214996; NSC803410), venetoclax (NSC766270), alisertib (NSC759677), olaparib (NSC753686), talazoparib (NSC767125), erdafitinib (NSC781556), ipatasertib (NSC767898), cabozantinib (NSC761068), nintedanib (NSC756659), abemaciclib (NSC768073), docetaxel (NSC628503), trametinib (NSC758246), and sapanisertib (NSC764658) were obtained from the National Cancer Institute (NCI) Developmental Therapeutics Program Chemical Repository. The FDA-approved anticancer drug set is available from the Developmental Therapeutics Program. […] The stock solutions were prepared in dimethyl sulfoxide (DMSO, Sigma-Aldrich, St. Louis, MO, cat. D2650) at 800-fold the tested concentration and stored at -70 degrees C prior to their use. All drugs and investigational agents were tested over a range starting from a high concentration at or near the clinical Cmax and decreasing in half-log increments. If the clinical Cmax for an agent had not been determined, the highest concentration tested was 10 microM.
Cell Culture. All cells were maintained in an incubator at 37 degrees C and 5% CO2 with 95% humidity. The PDC lines were cultured according to standard operating procedures established by the NCI PDMR (https://pdmr.cancer.gov/sops/default.htm). Briefly, all PDCs were thawed and cultured in Matrigel-coated flasks prepared with a working solution of 1X Ham's F-12 nutrient mix, without supplementation (Invitrogen, Waltham, MA, cat. 11765054), 100 U/mL penicillin-streptomycin (Invitrogen, cat. 15140122), and 2.5% Matrigel (Corning Inc., Corning, NY, cat. 354248) for the first three passages. All PDCs were cultured in complete DMEM/F-12 media containing advanced DMEM/F-12 (Invitrogen, cat. 12634028), 4.9% defined fetal bovine serum, heat inactivated (HyClone Laboratories Inc., Logan, UT, cat. SH30070.03HI), 389 ng/mL hydrocortisone (Sigma-Aldrich, cat. H4001), 9.7 ng/mL human EGF recombinant protein (Invitrogen, cat. PHG0313), 23.4 microg/mL adenine (Sigma-Aldrich, cat. A2786), 97.3 U/mL penicillin-streptomycin (Invitrogen, cat. 15140122), 1.9 mM L-glutamine (Invitrogen, cat. 25030081), and 9.7 microM Y-27632 dihydrochloride (Tocris Bioscience, Bristol, United Kingdom, cat. 1254). The PDCs were cultured in complete DMEM/F12 media without 9.7 microM Y-27632 dihydrochloride for at least two passages prior to the screen. The established cell line HOP-62 was cultured in RPMI 1640 medium, HEPES (Invitrogen, cat. 22400105) with 10% defined fetal bovine serum (HyClone Laboratories Inc., cat. SH30070.03) and 2 mM L-glutamine (Invitrogen, cat. 25030081). The pooled donor HUVEC were cultured in endothelial cell growth medium 2 (PromoCell, Heidelberg, Germany, cat. C-22011) and the hMSC were cultured in mesenchymal stem cell growth medium 2 (PromoCell, cat. C-28009). For all experiments, HUVEC and hMSC were used at passages </=5, while the malignant cell lines were used at passages </=15. […]

[1] = second compound 0.1 µM, first compound 0.01 µM
[2] = second compound 0.1 µM, first compound 0.0316 µM
[3] = second compound 0.1 µM, first compound 0.1 µM
[4] = second compound 0.1 µM, first compound 0.316 µM
[5] = second compound 0.1 µM, first compound 1 µM
[6] = second compound 0.1 µM, first compound 3.16 µM
[7] = second compound 0.316 µM, first compound 0.01 µM
[8] = second compound 0.316 µM, first compound 0.0316 µM
[9] = second compound 0.316 µM, first compound 0.1 µM
[10] = second compound 0.316 µM, first compound 0.316 µM
[11] = second compound 0.316 µM, first compound 1 µM
[12] = second compound 0.316 µM, first compound 3.16 µM
[13] = second compound 1 µM, first compound 0.01 µM
[14] = second compound 1 µM, first compound 0.0316 µM
[15] = second compound 1 µM, first compound 0.1 µM
[16] = second compound 1 µM, first compound 0.316 µM
[17] = second compound 1 µM, first compound 1 µM
[18] = second compound 1 µM, first compound 3.16 µM
[19] = second compound 3.16 µM, first compound 0.01 µM
[20] = second compound 3.16 µM, first compound 0.0316 µM
[21] = second compound 3.16 µM, first compound 0.1 µM
[22] = second compound 3.16 µM, first compound 0.316 µM
[23] = second compound 3.16 µM, first compound 1 µM
[24] = second compound 3.16 µM, first compound 3.16 µM
[25] = second compound 10 µM, first compound 0.01 µM
[26] = second compound 10 µM, first compound 0.0316 µM
[27] = second compound 10 µM, first compound 0.1 µM
[28] = second compound 10 µM, first compound 0.316 µM
[29] = second compound 10 µM, first compound 1 µM
[30] = second compound 10 µM, first compound 3.16 µM
[31] = second compound 0.1 µM, first compound 10 µM
[32] = second compound 0.316 µM, first compound 10 µM
[33] = second compound 1 µM, first compound 10 µM
[34] = second compound 3.16 µM, first compound 10 µM
[35] = second compound 10 µM, first compound 10 µM
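Note: compound exposure lasted 7 days before the readout.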
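Throughout, for viability, T/C: 100% = DMSO vehicle control viability.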

CC(=O)OC12COC1CC(O)C1(C)C(=O)C(O)C3=C(C)C(OC(=O)C(O)C(NC(=O)OC(C)(C)C)c4ccccc4)CC(O)(C(OC(=O)c4ccccc4)C21)C3(C)C (stereo not given) + C=CC(=O)N1CCN(c2nc(=O)n(-c3c(C)ccnc3C(C)C)c3nc(-c4c(O)cccc4F)c(F)cc23)C(C)C1
IC50 (second compound 0.1 µM): > 3160 nM | IC50 (second compound 0.316 µM): > 3160 nM | IC50 (second compound 1 µM): > 3160 nM | IC50 (second compound 3.16 µM): > 3160 nM | IC50 (second compound 10 µM): > 3160 nM | viability, T/C [1]: 93.1% | viability, T/C [2]: 96.3% | viability, T/C [3]: 83.3% | viability, T/C [4]: 82.9% | viability, T/C [5]: 84.2% | viability, T/C [6]: 102% | viability, T/C [7]: 94.4% | viability, T/C [8]: 116% | viability, T/C [9]: 110% | viability, T/C [10]: 77.6% | viability, T/C [11]: 110% | viability, T/C [12]: 119% | viability, T/C [13]: 102% | viability, T/C [14]: 106% | viability, T/C [15]: 103% | viability, T/C [16]: 81% | viability, T/C [17]: 117% | viability, T/C [18]: 90.6% | viability, T/C [19]: 103% | viability, T/C [20]: 93.9% | viability, T/C [21]: 91.1% | viability, T/C [22]: 96.8% | viability, T/C [23]: 99.6% | viability, T/C [24]: 113% | viability, T/C [25]: 87.1% | viability, T/C [26]: 116% | viability, T/C [27]: 98.7% | viability, T/C [28]: 110% | viability, T/C [29]: 116% | viability, T/C [30]: 113%

CN(C)C/C=C/C(=O)Nc1cc2c(Nc3ccc(F)c(Cl)c3)ncnc2cc1O[C@H]1CCOC1 + C=CC(=O)N1CCN(c2nc(=O)n(-c3c(C)ccnc3C(C)C)c3nc(-c4c(O)cccc4F)c(F)cc23)C(C)C1
IC50 (second compound 0.1 µM): > 100 nM | IC50 (second compound 0.316 µM): > 100 nM | IC50 (second compound 1 µM): > 100 nM | IC50 (second compound 3.16 µM): > 100 nM | IC50 (second compound 10 µM): > 100 nM | viability, T/C (second compound 0.1 µM, first compound 0.000316 µM): 103% | viability, T/C (second compound 0.1 µM, first compound 0.001 µM): 91.6% | viability, T/C (second compound 0.1 µM, first compound 0.00316 µM): 76.1% | viability, T/C [1]: 83.5% | viability, T/C [2]: 115% | viability, T/C [3]: 117% | viability, T/C (second compound 0.316 µM, first compound 0.000316 µM): 97.5% | viability, T/C (second compound 0.316 µM, first compound 0.001 µM): 105% | viability, T/C (second compound 0.316 µM, first compound 0.00316 µM): 95.1% | viability, T/C [7]: 96.1% | viability, T/C [8]: 117% | viability, T/C [9]: 98.6% | viability, T/C (second compound 1 µM, first compound 0.000316 µM): 110% | viability, T/C (second compound 1 µM, first compound 0.001 µM): 121% | viability, T/C (second compound 1 µM, first compound 0.00316 µM): 83.7% | viability, T/C [13]: 90.8% | viability, T/C [14]: 84.9% | viability, T/C [15]: 96.5% | viability, T/C (second compound 3.16 µM, first compound 0.000316 µM): 138% | viability, T/C (second compound 3.16 µM, first compound 0.001 µM): 128% | viability, T/C (second compound 3.16 µM, first compound 0.00316 µM): 117% | viability, T/C [19]: 95% | viability, T/C [20]: 126% | viability, T/C [21]: 105% | viability, T/C (second compound 10 µM, first compound 0.000316 µM): 146% | viability, T/C (second compound 10 µM, first compound 0.001 µM): 138% | viability, T/C (second compound 10 µM, first compound 0.00316 µM): 119% | viability, T/C [25]: 99.2% | viability, T/C [26]: 110% | viability, T/C [27]: 108%

COC(=O)c1ccc2c(C(=Nc3ccc(N(C)C(=O)CN4CCN(C)CC4)cc3)c3ccccc3)c(O)[nH]c2c1 + C=CC(=O)N1CCN(c2nc(=O)n(-c3c(C)ccnc3C(C)C)c3nc(-c4c(O)cccc4F)c(F)cc23)C(C)C1
IC50 (second compound 0.1 µM): 1340 nM | IC50 (second compound 0.316 µM): 1080 nM | IC50 (second compound 1 µM): 1050 nM | IC50 (second compound 3.16 µM): 922 nM | IC50 (second compound 10 µM): 984 nM | viability, T/C [2]: 107% | viability, T/C [3]: 100% | viability, T/C [4]: 90.5% | viability, T/C [5]: 67% | viability, T/C [6]: 0.52% | viability, T/C [31]: 0.48% | viability, T/C [8]: 120% | viability, T/C [9]: 103% | viability, T/C [10]: 84.8% | viability, T/C [11]: 63.4% | viability, T/C [12]: 0.81% | viability, T/C [32]: 0.29% | viability, T/C [14]: 129% | viability, T/C [15]: 116% | viability, T/C [16]: 82.8% | viability, T/C [17]: 65.8% | viability, T/C [18]: 0.56% | viability, T/C [33]: 0.21% | viability, T/C [20]: 121% | viability, T/C [21]: 134% | viability, T/C [22]: 82.8% | viability, T/C [23]: 56.4% | viability, T/C [24]: 0.33% | viability, T/C [34]: 0.22% | viability, T/C [26]: 119% | viability, T/C [27]: 103% | viability, T/C [28]: 103% | viability, T/C [29]: 50% | viability, T/C [30]: 0.49% | viability, T/C [35]: 0.31%

O=C(c1cc(Cc2n[nH]c(=O)c3ccccc23)ccc1F)N1CCN(C(=O)C2CC2)CC1 + C=CC(=O)N1CCN(c2nc(=O)n(-c3c(C)ccnc3C(C)C)c3nc(-c4c(O)cccc4F)c(F)cc23)C(C)C1
IC50 (second compound 0.1 µM): > 10000 nM | IC50 (second compound 0.316 µM): > 10000 nM | IC50 (second compound 1 µM): > 10000 nM | IC50 (second compound 3.16 µM): > 10000 nM | IC50 (second compound 10 µM): > 10000 nM | viability, T/C [2]: 94.3% | viability, T/C [3]: 87% | viability, T/C [4]: 82.3% | viability, T/C [5]: 97.7% | viability, T/C [6]: 101% | viability, T/C [31]: 85.1% | viability, T/C [8]: 110% | viability, T/C [9]: 108% | viability, T/C [10]: 81.9% | viability, T/C [11]: 83.6% | viability, T/C [12]: 93.9% | viability, T/C [32]: 97.3% | viability, T/C [14]: 88% | viability, T/C [15]: 103% | viability, T/C [16]: 113% | viability, T/C [17]: 100% | viability, T/C [18]: 88.2% | viability, T/C [33]: 92.2% | viability, T/C [20]: 105% | viability, T/C [21]: 115% | viability, T/C [22]: 110% | viability, T/C [23]: 89.9% | viability, T/C [24]: 107% | viability, T/C [34]: 112% | viability, T/C [26]: 89.2% | viability, T/C [27]: 102% | viability, T/C [28]: 113% | viability, T/C [29]: 111% | viability, T/C [30]: 102% | viability, T/C [35]: 99.6%
